{"source": "PubChem BioAssay (NCI)", "test_in_all_cases": "growth of human tumour cells (NCI), 384-well format", "key": {"[1]": {"tested_on": "OVCAR-4 ovarian"}, "[2]": {"tested_on": "U251 glioblastoma"}, "[3]": {"tested_on": "CCRF-CEM leukemia"}, "[4]": {"tested_on": "RPMI-8226 leukemia"}, "[5]": {"tested_on": "UO-31 renal"}, "[6]": {"tested_on": "LOX IMVI melanoma"}, "[7]": {"tested_on": "ACHN renal"}, "[8]": {"tested_on": "786-0 renal"}, "[9]": {"tested_on": "HT29 colon"}, "[10]": {"tested_on": "UACC-257 melanoma"}, "[11]": {"tested_on": "T-47D breast"}, "[12]": {"tested_on": "SNB-19 CNS"}, "[13]": {"tested_on": "HCT-116 colon"}, "[14]": {"tested_on": "SK-MEL-28 melanoma"}, "[15]": {"tested_on": "HOP-92 NSCLC"}, "[16]": {"tested_on": "HCC-2998 colon"}, "[17]": {"tested_on": "K-562 leukemia"}, "[18]": {"tested_on": "SF-539 CNS"}, "[19]": {"tested_on": "SK-OV-3 ovarian"}, "[20]": {"tested_on": "NCI-H23 lung"}, "[21]": {"tested_on": "SW-620 colon"}, "[22]": {"tested_on": "COLO 205 colon"}, "[23]": {"tested_on": "TK-10 renal"}, "[24]": {"tested_on": "KM12 colon"}, "[25]": {"tested_on": "MALME-3M melanoma"}, "[26]": {"tested_on": "DU-145 prostate"}, "[27]": {"tested_on": "A498 renal"}, "[28]": {"tested_on": "A549 NSCLC"}, "[29]": {"tested_on": "OVCAR-5 ovarian"}, "[30]": {"tested_on": "MOLT-4 leukemia"}, "[31]": {"tested_on": "CAKI-1 renal"}, "[32]": {"tested_on": "HCT-15 colon"}, "[33]": {"tested_on": "SF-295 CNS"}, "[34]": {"tested_on": "SK-MEL-2 melanoma"}, "[35]": {"tested_on": "PC-3 prostate"}, "[36]": {"tested_on": "OVCAR-3 ovarian"}, "[37]": {"tested_on": "MDA-MB-435 melanoma"}, "[38]": {"tested_on": "IGROV1 ovarian"}, "[39]": {"tested_on": "HL-60(TB) leukemia"}, "[40]": {"tested_on": "NCI/ADR-RES ovarian"}, "[41]": {"tested_on": "SF-268 CNS"}, "[42]": {"tested_on": "SN12C renal"}, "[43]": {"tested_on": "UACC-62 melanoma"}, "[44]": {"tested_on": "MDA-MB-231 breast"}, "[45]": {"tested_on": "OVCAR-8 ovarian"}, "[46]": {"tested_on": "M14 melanoma"}, "[47]": {"tested_on": "NCI-H460 NSCLC"}, "[48]": {"tested_on": "HOP-62 NSCLC"}, "[49]": {"tested_on": "NCI-H322M lung"}, "[50]": {"tested_on": "NCI-H226 lung"}}, "note": "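GI50 = concentration required for 50% inhibition of growth. TGI is the concentration that stops growth completely.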"}
{"smiles": "CO[C@H]1C[C@@H]2CC[C@@H](C)[C@@](O)(O2)C(=O)C(=O)N2CCCC[C@H]2C(=O)O[C@H]([C@H](C)C[C@@H]2CC[C@@H](OP(C)(C)=O)[C@H](OC)C2)CC(=O)[C@H](C)/C=C(\\C)[C@@H](O)[C@@H](OC)C(=O)[C@H](C)C[C@H](C)/C=C/C=C/C=C/1C", "values": [{"measurement": "GI50", "setting": "[1]", "value": 12, "unit": "µM"}, {"measurement": "TGI", "setting": "[1]", "value": 25, "unit": "µM"}, {"measurement": "GI50", "setting": "[2]", "value": 4.92, "unit": "µM"}, {"measurement": "TGI", "setting": "[2]", "value": 21.3, "unit": "µM"}, {"measurement": "GI50", "setting": "[3]", "value": 0.0126, "unit": "µM"}, {"measurement": "TGI", "setting": "[3]", "value": 17, "unit": "µM"}, {"measurement": "GI50", "setting": "[4]", "value": "< 0.01", "unit": "µM"}, {"measurement": "GI50", "setting": "[5]", "value": "< 0.01", "unit": "µM"}, {"measurement": "TGI", "setting": "[5]", "value": 0.0198, "unit": "µM"}, {"measurement": "GI50", "setting": "[6]", "value": 17.5, "unit": "µM"}, {"measurement": "TGI", "setting": "[6]", "value": 31.4, "unit": "µM"}, {"measurement": "GI50", "setting": "[7]", "value": 12.4, "unit": "µM"}, {"measurement": "TGI", "setting": "[7]", "value": 25.2, "unit": "µM"}, {"measurement": "GI50", "setting": "[8]", "value": 11.2, "unit": "µM"}, {"measurement": "TGI", "setting": "[8]", "value": 23.5, "unit": "µM"}, {"measurement": "GI50", "setting": "[9]", "value": 12.5, "unit": "µM"}, {"measurement": "TGI", "setting": "[9]", "value": 25.2, "unit": "µM"}, {"measurement": "GI50", "setting": "[10]", "value": 15.3, "unit": "µM"}, {"measurement": "TGI", "setting": "[10]", "value": 28.7, "unit": "µM"}, {"measurement": "GI50", "setting": "[11]", "value": "< 0.01", "unit": "µM"}, {"measurement": "TGI", "setting": "[11]", "value": 25, "unit": "µM"}, {"measurement": "GI50", "setting": "[12]", "value": 13.5, "unit": "µM"}, {"measurement": "TGI", "setting": "[12]", "value": 26.9, "unit": "µM"}, {"measurement": "GI50", "setting": "[13]", "value": 12.4, "unit": "µM"}, {"measurement": "TGI", "setting": "[13]", "value": 25.2, "unit": "µM"}, {"measurement": "GI50", "setting": "[14]", "value": 12.2, "unit": "µM"}, {"measurement": "TGI", "setting": "[14]", "value": 24.7, "unit": "µM"}, {"measurement": "GI50", "setting": "[15]", "value": 12.5, "unit": "µM"}, {"measurement": "TGI", "setting": "[15]", "value": 25.5, "unit": "µM"}, {"measurement": "GI50", "setting": "[16]", "value": 12.3, "unit": "µM"}, {"measurement": "TGI", "setting": "[16]", "value": 24.9, "unit": "µM"}, {"measurement": "GI50", "setting": "[17]", "value": 11.2, "unit": "µM"}, {"measurement": "TGI", "setting": "[17]", "value": 23.4, "unit": "µM"}, {"measurement": "GI50", "setting": "[18]", "value": "< 0.01", "unit": "µM"}, {"measurement": "TGI", "setting": "[18]", "value": 20.7, "unit": "µM"}, {"measurement": "GI50", "setting": "[19]", "value": "< 0.01", "unit": "µM"}, {"measurement": "TGI", "setting": "[19]", "value": 20.2, "unit": "µM"}, {"measurement": "GI50", "setting": "[20]", "value": 19.5, "unit": "µM"}, {"measurement": "TGI", "setting": "[20]", "value": 35.2, "unit": "µM"}, {"measurement": "GI50", "setting": "[21]", "value": 14.9, "unit": "µM"}, {"measurement": "TGI", "setting": "[21]", "value": 28.6, "unit": "µM"}, {"measurement": "GI50", "setting": "[22]", "value": 13.5, "unit": "µM"}, {"measurement": "TGI", "setting": "[22]", "value": 26.5, "unit": "µM"}, {"measurement": "GI50", "setting": "[23]", "value": 11.6, "unit": "µM"}, {"measurement": "TGI", "setting": "[23]", "value": 28.6, "unit": "µM"}, {"measurement": "GI50", "setting": "[24]", "value": 13.4, "unit": "µM"}, {"measurement": "TGI", "setting": "[24]", "value": 26.6, "unit": "µM"}, {"measurement": "GI50", "setting": "[25]", "value": "< 0.01", "unit": "µM"}, {"measurement": "TGI", "setting": "[25]", "value": 21.2, "unit": "µM"}, {"measurement": "GI50", "setting": "[26]", "value": 11.3, "unit": "µM"}, {"measurement": "TGI", "setting": "[26]", "value": 26.8, "unit": "µM"}, {"measurement": "GI50", "setting": "[27]", "value": "< 0.01", "unit": "µM"}, {"measurement": "TGI", "setting": "[27]", "value": 17.6, "unit": "µM"}, {"measurement": "GI50", "setting": "[28]", "value": "< 0.01", "unit": "µM"}, {"measurement": "TGI", "setting": "[28]", "value": 39.9, "unit": "µM"}, {"measurement": "GI50", "setting": "[29]", "value": 15.3, "unit": "µM"}, {"measurement": "TGI", "setting": "[29]", "value": 29.8, "unit": "µM"}, {"measurement": "GI50", "setting": "[30]", "value": "< 0.01", "unit": "µM"}, {"measurement": "TGI", "setting": "[30]", "value": 11.7, "unit": "µM"}, {"measurement": "GI50", "setting": "[31]", "value": 10.5, "unit": "µM"}, {"measurement": "TGI", "setting": "[31]", "value": 23.1, "unit": "µM"}, {"measurement": "GI50", "setting": "[32]", "value": 11.4, "unit": "µM"}, {"measurement": "TGI", "setting": "[32]", "value": 23.9, "unit": "µM"}, {"measurement": "GI50", "setting": "[33]", "value": "< 0.01", "unit": "µM"}, {"measurement": "TGI", "setting": "[33]", "value": 16.6, "unit": "µM"}, {"measurement": "GI50", "setting": "[34]", "value": 11, "unit": "µM"}, {"measurement": "TGI", "setting": "[34]", "value": 23, "unit": "µM"}, {"measurement": "GI50", "setting": "[35]", "value": 1.06, "unit": "µM"}, {"measurement": "TGI", "setting": "[35]", "value": 21.3, "unit": "µM"}, {"measurement": "GI50", "setting": "[36]", "value": 11.2, "unit": "µM"}, {"measurement": "TGI", "setting": "[36]", "value": 23.4, "unit": "µM"}, {"measurement": "GI50", "setting": "[37]", "value": 14.2, "unit": "µM"}, {"measurement": "TGI", "setting": "[37]", "value": 27.9, "unit": "µM"}, {"measurement": "GI50", "setting": "[38]", "value": "< 0.01", "unit": "µM"}, {"measurement": "TGI", "setting": "[38]", "value": 16, "unit": "µM"}, {"measurement": "GI50", "setting": "[39]", "value": 15.3, "unit": "µM"}, {"measurement": "TGI", "setting": "[39]", "value": 28.7, "unit": "µM"}, {"measurement": "GI50", "setting": "[40]", "value": 15.4, "unit": "µM"}, {"measurement": "TGI", "setting": "[40]", "value": 38.7, "unit": "µM"}, {"measurement": "GI50", "setting": "[41]", "value": 12.5, "unit": "µM"}, {"measurement": "TGI", "setting": "[41]", "value": 25.3, "unit": "µM"}, {"measurement": "GI50", "setting": "[42]", "value": 14, "unit": "µM"}, {"measurement": "TGI", "setting": "[42]", "value": 27.2, "unit": "µM"}, {"measurement": "GI50", "setting": "[43]", "value": 7.86, "unit": "µM"}, {"measurement": "TGI", "setting": "[43]", "value": 21.6, "unit": "µM"}, {"measurement": "GI50", "setting": "[44]", "value": 12, "unit": "µM"}, {"measurement": "TGI", "setting": "[44]", "value": 24.4, "unit": "µM"}, {"measurement": "GI50", "setting": "[45]", "value": 11, "unit": "µM"}, {"measurement": "TGI", "setting": "[45]", "value": 23.2, "unit": "µM"}, {"measurement": "GI50", "setting": "[46]", "value": 10.4, "unit": "µM"}, {"measurement": "TGI", "setting": "[46]", "value": 22.2, "unit": "µM"}, {"measurement": "GI50", "setting": "[47]", "value": "< 0.01", "unit": "µM"}, {"measurement": "TGI", "setting": "[47]", "value": 17.4, "unit": "µM"}, {"measurement": "GI50", "setting": "[48]", "value": 0.491, "unit": "µM"}, {"measurement": "TGI", "setting": "[48]", "value": 21.7, "unit": "µM"}, {"measurement": "GI50", "setting": "[49]", "value": "< 0.01", "unit": "µM"}, {"measurement": "TGI", "setting": "[49]", "value": 25.3, "unit": "µM"}, {"measurement": "GI50", "setting": "[50]", "value": 12.4, "unit": "µM"}, {"measurement": "TGI", "setting": "[50]", "value": 25.3, "unit": "µM"}]}
